Reference: ChEMBL document CHEMBL1201862, “PubChem BioAssay data set” (2004)
Calls of active or inactive are those of the source.

Assays:
[1] = growth suppression of PTEN-null colon cells, dose response, cell-based, HCT116 PTEN knockout (AID 1047); format: functional;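 also: HCT116 colon tumor cells with PTEN knocked out; cells exposed to compound for 60 hours before readout; potency for loss of cell viability measured by luminescence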
[2] = growth suppression of beta-catenin-knockout colon cells, dose response, cell-based, HCT116, human colon tumor (AID 1045); format: functional;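 also: HCT116 colon tumor cells with beta catenin knocked out; cells exposed to compound for 60 hours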
[3] = target: T1, Polyadenylate-binding protein 1 (Homo sapiens, UniProt P11940); test: PABP1 MLLE–PAM2 interaction inhibitors, dose response, miRNA deadenylation inhibitor project, biochemical, fluorescence polarization, Cy5-PAM2 peptide, secondary (AID 602260); format: functional; conditions: read-out: IC50_Mean
T1 sequence (P11940 whole entry): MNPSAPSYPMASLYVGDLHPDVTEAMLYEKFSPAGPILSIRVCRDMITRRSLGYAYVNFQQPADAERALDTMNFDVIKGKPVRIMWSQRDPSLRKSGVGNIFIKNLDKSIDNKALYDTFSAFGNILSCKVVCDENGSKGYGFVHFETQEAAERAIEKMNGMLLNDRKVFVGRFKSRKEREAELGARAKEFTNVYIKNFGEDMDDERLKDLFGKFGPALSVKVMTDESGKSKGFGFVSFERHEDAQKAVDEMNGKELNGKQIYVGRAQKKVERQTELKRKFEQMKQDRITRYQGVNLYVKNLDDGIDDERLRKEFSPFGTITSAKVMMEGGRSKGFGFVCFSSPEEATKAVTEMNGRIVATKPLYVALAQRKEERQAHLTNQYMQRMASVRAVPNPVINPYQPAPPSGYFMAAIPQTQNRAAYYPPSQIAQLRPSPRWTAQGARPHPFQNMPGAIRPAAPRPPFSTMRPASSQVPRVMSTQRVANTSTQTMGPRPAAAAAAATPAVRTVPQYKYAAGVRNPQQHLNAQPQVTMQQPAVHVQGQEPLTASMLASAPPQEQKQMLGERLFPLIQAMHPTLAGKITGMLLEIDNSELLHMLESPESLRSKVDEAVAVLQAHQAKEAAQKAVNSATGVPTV

[4] = target: T1, Polyadenylate-binding protein 1; test: PABP1 MLLE–PAM2 binding inhibitor potency, dose response, biochemical, fluorescence polarization, FITC-PAM2 peptide (AID 602259); format: functional; conditions: read-out: IC50_Mean
Nonstructural protein 1 = Nonstructural protein 1 (Influenza A virus, UniProt Q194T2); format: functional, Influenza A virus (A/California/07/2009(H1N1))
Nonstructural protein 1, sequence (Q194T2 whole entry): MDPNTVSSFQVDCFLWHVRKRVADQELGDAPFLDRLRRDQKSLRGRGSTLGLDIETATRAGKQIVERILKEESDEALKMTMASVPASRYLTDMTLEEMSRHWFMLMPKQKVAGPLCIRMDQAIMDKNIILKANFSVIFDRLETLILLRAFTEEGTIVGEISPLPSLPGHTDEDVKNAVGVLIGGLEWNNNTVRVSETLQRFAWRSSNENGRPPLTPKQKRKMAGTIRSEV

[5] = target: Heat shock protein HSP 90-alpha (Homo sapiens, UniProt P07900); format: functional, organism-based
[6] = target: T2, RNA-binding protein pos-1 (Caenorhabditis elegans, UniProt G5EF15); test: inhibitors of POS-1/mex-3 RNA binding, dose response, biochemical, fluorescence polarization (AID 1964);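 also: purified POS-1 fused to maltose binding protein made in E. coli; potency of compounds blocking POS-1 binding to fluorescent RNA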
T2 sequence (G5EF15 whole entry): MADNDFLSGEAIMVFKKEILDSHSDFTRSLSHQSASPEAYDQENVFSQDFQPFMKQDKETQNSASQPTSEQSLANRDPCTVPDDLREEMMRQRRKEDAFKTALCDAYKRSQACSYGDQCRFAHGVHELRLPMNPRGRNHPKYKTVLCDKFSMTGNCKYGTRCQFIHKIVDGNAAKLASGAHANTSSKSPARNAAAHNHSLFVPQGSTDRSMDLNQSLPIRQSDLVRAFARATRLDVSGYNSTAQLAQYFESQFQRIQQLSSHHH

[7] = target: T3, Zinc finger protein mex-5 (Caenorhabditis elegans, UniProt Q9XUB2); test: MEX-5/TCR-2 RNA interaction inhibitors, dose response, biochemical, C. elegans, fluorescence polarization (AID 1960)
T3 sequence (Q9XUB2 whole entry): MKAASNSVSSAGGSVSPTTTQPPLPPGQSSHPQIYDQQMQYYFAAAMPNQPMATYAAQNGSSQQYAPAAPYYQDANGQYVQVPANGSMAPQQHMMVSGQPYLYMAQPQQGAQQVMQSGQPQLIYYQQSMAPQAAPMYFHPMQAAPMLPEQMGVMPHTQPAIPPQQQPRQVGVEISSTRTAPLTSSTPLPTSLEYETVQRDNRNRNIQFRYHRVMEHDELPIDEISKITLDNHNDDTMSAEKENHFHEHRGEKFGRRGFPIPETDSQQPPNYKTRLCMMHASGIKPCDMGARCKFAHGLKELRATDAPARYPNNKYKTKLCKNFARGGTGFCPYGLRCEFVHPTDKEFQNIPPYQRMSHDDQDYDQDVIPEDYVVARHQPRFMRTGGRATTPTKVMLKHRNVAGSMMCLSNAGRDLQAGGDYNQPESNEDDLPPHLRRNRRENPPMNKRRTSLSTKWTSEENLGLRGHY

[8] = HEp-2 cell cytotoxicity, dose response, cytotoxicity control for RSV inhibitor project, HTS (AID 2410); format: functional; conditions: human respiratory syncytial virus
Protein skinhead-1 = target: T4, Protein skinhead-1 (Caenorhabditis elegans, UniProt P34707); format: functional
T4 sequence (P34707 whole entry): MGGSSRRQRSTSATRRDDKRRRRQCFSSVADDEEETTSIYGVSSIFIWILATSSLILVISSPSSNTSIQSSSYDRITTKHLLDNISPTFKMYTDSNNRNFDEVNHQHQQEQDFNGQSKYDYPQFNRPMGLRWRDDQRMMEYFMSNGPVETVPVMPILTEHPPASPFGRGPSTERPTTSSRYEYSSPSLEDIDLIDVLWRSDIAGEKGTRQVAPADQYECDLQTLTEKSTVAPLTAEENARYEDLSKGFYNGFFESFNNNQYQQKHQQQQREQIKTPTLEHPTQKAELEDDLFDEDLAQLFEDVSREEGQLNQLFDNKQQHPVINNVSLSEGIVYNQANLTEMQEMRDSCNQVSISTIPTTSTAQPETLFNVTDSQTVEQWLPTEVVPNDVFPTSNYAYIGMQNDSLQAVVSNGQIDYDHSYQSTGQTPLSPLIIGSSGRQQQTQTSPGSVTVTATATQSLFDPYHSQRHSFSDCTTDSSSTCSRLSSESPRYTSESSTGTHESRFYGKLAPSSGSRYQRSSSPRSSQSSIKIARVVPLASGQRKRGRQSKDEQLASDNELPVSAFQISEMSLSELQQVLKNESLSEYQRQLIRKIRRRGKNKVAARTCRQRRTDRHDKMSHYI

[9] = target: T5, Corticotropin-releasing factor receptor 2/Corticotropin-releasing factor-binding protein (Homo sapiens, UniProt P24387+Q13324); test: Dose Response confirmation of uHTS hits for small molecule antagonists of the CRF-binding protein and CRF-R2 receptor complex.; format: functional; conditions: read-out: IC50_Mean
T5 sequence (Q13324 whole entry): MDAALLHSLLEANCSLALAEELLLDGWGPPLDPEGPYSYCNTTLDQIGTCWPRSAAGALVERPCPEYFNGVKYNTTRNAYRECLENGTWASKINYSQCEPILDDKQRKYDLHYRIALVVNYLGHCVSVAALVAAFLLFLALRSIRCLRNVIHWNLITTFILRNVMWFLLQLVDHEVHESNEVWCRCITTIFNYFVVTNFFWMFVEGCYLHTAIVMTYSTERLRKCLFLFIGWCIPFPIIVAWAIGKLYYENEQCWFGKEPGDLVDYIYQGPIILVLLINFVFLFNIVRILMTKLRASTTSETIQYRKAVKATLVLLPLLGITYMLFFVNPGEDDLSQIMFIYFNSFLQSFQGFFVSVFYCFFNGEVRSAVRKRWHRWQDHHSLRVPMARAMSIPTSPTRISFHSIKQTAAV
T5 sequence (P24387 whole entry): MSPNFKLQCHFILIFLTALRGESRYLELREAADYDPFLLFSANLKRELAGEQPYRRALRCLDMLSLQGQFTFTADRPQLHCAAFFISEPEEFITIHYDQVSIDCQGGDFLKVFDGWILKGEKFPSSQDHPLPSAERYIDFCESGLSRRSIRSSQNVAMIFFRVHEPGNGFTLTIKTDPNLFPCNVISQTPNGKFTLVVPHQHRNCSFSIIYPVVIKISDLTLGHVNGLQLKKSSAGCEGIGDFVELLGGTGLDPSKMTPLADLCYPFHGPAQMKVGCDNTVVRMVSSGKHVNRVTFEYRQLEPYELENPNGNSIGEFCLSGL

[10] = target: T5, Corticotropin-releasing factor receptor 2/Corticotropin-releasing factor-binding protein; test: activators of CRF receptor 2 with binding protein – uHTS hits, confirmation (AID 602473); format: functional; conditions: read-out: EC50_Mean
Paired box protein Pax-8 = Paired box protein Pax-8 (Homo sapiens, UniProt Q06710); test: inhibitors of PAX8-driven TPO luciferase reporter, dose response, RMG-I cells, cherry-pick (AID 687027); format: functional, cell-based;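 also: luciferase reporter driven by Pax8 target thyroperoxidase promoter measured by SteadyGlo luminescence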
Paired box protein Pax-8, sequence (Q06710 whole entry): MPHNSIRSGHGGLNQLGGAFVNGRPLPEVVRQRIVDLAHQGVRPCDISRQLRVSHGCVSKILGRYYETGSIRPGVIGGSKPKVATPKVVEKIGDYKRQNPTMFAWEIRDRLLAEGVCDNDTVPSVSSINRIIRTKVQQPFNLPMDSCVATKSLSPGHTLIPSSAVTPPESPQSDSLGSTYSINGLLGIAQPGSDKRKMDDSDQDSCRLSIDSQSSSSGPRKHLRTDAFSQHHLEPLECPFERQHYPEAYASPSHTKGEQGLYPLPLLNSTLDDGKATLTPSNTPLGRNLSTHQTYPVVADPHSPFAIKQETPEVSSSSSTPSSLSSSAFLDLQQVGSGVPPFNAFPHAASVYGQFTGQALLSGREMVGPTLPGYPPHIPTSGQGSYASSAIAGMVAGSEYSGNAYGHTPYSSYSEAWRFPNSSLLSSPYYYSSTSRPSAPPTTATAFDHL

Streptococcus = test: Group A Streptococcus viability loss, dose response, counter-screen for streptokinase expression inhibitor project, luminescence, BacTiterGlo (AID 1915); format: functional, organism-based;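 also: potency for reduction of bacterial viability or growth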
Streptokinase A = target: T6, Streptokinase A (Streptococcus pyogenes serotype M1, UniProt P10520); test: S. pyogenes streptokinase expression inhibitors, potency, dose response, plasminogen activation absorbance, OD405 (AID 1914); format: functional, Streptococcus pyogenes M1 GAS;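 also: secreted streptokinase activity via plasminogen activation per viability signal from cell pellet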
T6 sequence (P10520 whole entry): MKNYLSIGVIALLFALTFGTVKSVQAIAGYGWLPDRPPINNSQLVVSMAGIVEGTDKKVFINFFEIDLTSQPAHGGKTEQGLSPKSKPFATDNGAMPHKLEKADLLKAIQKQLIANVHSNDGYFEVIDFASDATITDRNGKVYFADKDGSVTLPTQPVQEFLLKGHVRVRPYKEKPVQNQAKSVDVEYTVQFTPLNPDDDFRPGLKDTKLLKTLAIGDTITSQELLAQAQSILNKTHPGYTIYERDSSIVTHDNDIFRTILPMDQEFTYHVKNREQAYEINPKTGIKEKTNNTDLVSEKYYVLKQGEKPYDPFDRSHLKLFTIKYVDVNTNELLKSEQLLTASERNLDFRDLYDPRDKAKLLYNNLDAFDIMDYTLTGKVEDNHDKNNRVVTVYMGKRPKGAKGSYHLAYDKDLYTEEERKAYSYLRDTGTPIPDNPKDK

[11] = tested on: Streptococcus sp. 'group A'; test: growth inhibition of control SK(-) GAS strain, dose response, counter-screen for streptokinase expression inhibitor project, luminescence, kanamycin, BacTiterGlo, confirmation (AID 1900); format: functional, organism-based

Cc1cc(C2=NN=C(NC3CC3)SC2)c(C)n1-c1ccccc1
EC50 [1]: 23.7 µM (active) | EC50 [2]: 19.5 µM (active)

COc1ccc(S(=O)(=O)NCc2ccc3c(c2)cc(C)n3C)cc1
IC50 [3]: > 66 µM (inactive) | IC50 [4]: > 66 µM (inactive) | IC50 (Nonstructural protein 1): 66.3 µM (active)

CC1CCc2cc(F)ccc2N1C(=O)CSc1n[nH]c2c3ccccc3nc-2n1 (stereo unspecified)
EC50 [1]: 19 µM (active) | EC50 [2]: 22.5 µM (active)

COc1ccc(N2CCN(c3c(S(=O)(=O)c4ccccc4)cnc4ccc(OC)cc34)CC2)cc1
AC50 [5]: 2.76 µM (active)

c1csc(C2Nc3cccc4cccc(c34)N2)c1
IC50 [3]: > 66 µM (inactive) | IC50 [4]: > 66 µM (inactive)

O=[N+]([O-])c1ccc(N/N=C2\CC3CC=CC23)c([N+](=O)[O-])c1 (stereo unspecified)
IC50 (Nonstructural protein 1): 35.3 µM (active)

COc1cc([C@H](Cc2ccccc2)NC(C)=O)oc(=O)c1
EC50 [6]: 38.7 µM (active) | EC50 [7]: 27.9 µM (active)

COCCN1CCC(CNCc2c[nH]nc2-c2ccc(C)c(C)c2)C1 (stereo unspecified)
EC50 [6]: > 300 µM (not active) | EC50 [7]: > 300 µM (inconclusive)

O=C(NCc1ccncc1)C(=O)N/N=C/c1ccccn1
EC50 [6]: 86.1 µM (active) | EC50 [7]: 24.2 µM (active)

Clc1cccc(CSc2ccc(-c3ccco3)nn2)c1
CC50 [8]: > 50 µM (active) | IC50 (Protein skinhead-1): 99.9 µM (inactive)

COc1ccc(Cl)cc1NC(=O)CSc1ncnc2c1oc1ccccc12
EC50 [1]: 4.25 µM (active) | EC50 [2]: 6.22 µM (active)

Cc1nn(-c2ccccc2)c(N2CCCC2)c1/C=N/Nc1ccc(S(=O)(=O)Nc2ccccc2)cc1[N+](=O)[O-]
EC50 [1]: 6.74 µM (active) | EC50 [2]: 9.37 µM (active)

CCOC(=O)c1sc(-c2ccc(C(F)(F)F)cc2)nc1O
IC50 [9]: > 47.1 µM (inactive) | AC50 [5]: 3.14 µM (active) | EC50 [10]: 11.9 µM (active)

CCOc1ccc(-c2nnc(-c3ccccc3)o2)cc1
IC50 (Protein skinhead-1): > 100 µM (inactive)

CCOC(=O)c1ccccc1N1C(=O)CSC1=S
IC50 [3]: > 66 µM (inactive) | IC50 [4]: > 66 µM (inactive)

COc1cccc(CNC(=O)CSc2ccc(-c3ccccn3)nn2)c1
IC50 (Nonstructural protein 1): 20.6 µM (active)

O=C(NC(=S)Nc1ccc(CN2CCCCC2)cc1)c1ccco1
IC50 [3]: > 66 µM (inactive) | IC50 [4]: > 66 µM (inactive)

O=S(=O)(/C=C/c1ccccc1)NC1CCCCCCC1
AC50 [5]: 24.7 µM (active)

CCCCn1c(NC(=S)Nc2ccccc2)nc2ccccc21
IC50 [3]: > 66 µM (inactive) | IC50 [4]: > 66 µM (inactive)

O=C1N=C(N2CCCCC2)S/C1=C/C1=Cc2ccccc2OC1
EC50 [6]: > 300 µM (not active) | EC50 [7]: > 300 µM (not active)

CCc1ccc(-c2nc(CSCC(=O)N3CCN(c4ncccn4)CC3)c(C)o2)cc1
EC50 [1]: 53.6 µM (active) | EC50 [2]: 29.8 µM (active)

O=C(NC1CCCCCC1)C(=S)NCCc1ccccc1
IC50 [3]: > 66 µM (inactive) | IC50 [4]: > 66 µM (inactive)

Oc1ccc(-c2c(-c3ccsc3)sc3ccccc23)cc1
AC50 [5]: 3.3 µM (active)

O=C(N/N=C/c1c[nH]c2ccccc12)c1[nH]c2ccc(Br)cc2c1-c1ccccc1
AC50 (Paired box protein Pax-8): 3.5 µM (active) | EC50 [1]: 0.412 µM (active) | EC50 (Streptococcus): 2.22 µM (active) | EC50 (Streptokinase A): > 150 µM (not active) | EC50 [2]: 0.378 µM (active) | EC50 [11]: 1.29 µM (active)

Fc1ccc(CSc2ncnc3ccccc23)cc1
IC50 (Protein skinhead-1): 31.8 µM (active)

COc1ccc2cc3cc(C(=O)N4CCN(Cc5ccc6c(c5)OCO6)CC4)oc3nc2c1
IC50 (Nonstructural protein 1): > 100 µM (active)

CCOc1ccc(-n2cc(-c3ccccc3)c3c(=S)[nH]cnc32)cc1
IC50 [3]: > 66 µM (inactive) | IC50 [4]: > 66 µM (inactive) | EC50 (Streptokinase A): > 150 µM (not active)

Cc1c(N=NC2=C(O)CCCC2=O)c(=O)n(-c2ccccc2)n1C
IC50 (Nonstructural protein 1): 2.9 µM (active)

CCOc1ccccc1NC(=O)Cn1c(=O)oc2cc(Cl)ccc21
IC50 (Protein skinhead-1): > 100 µM (inactive)

COc1cccc(OCCn2cc(C=O)c3ccccc32)c1
EC50 [6]: > 300 µM (not active) | EC50 [7]: > 300 µM (not active)

CCCOc1ccc(N2C(=O)CC(N(CCc3ccc(OC)cc3)C(=O)c3cccc(F)c3)C2=O)cc1 (stereo unspecified)
IC50 (Protein skinhead-1): > 100 µM (inactive)

COC(=O)c1ccc(-n2c(C)cc(/C=N/Nc3nc(C)cc(O)n3)c2C)cc1
EC50 [6]: > 300 µM (not active) | EC50 [7]: > 300 µM (not active)

Cc1cc(NC(=O)CSc2nnc(-c3ccncc3)n2-c2ccc(F)cc2)no1
IC50 (Protein skinhead-1): > 100 µM (inactive)

O=C(COC(=O)CCNS(=O)(=O)c1ccccc1)Nc1ccc(OC(F)F)cc1
IC50 (Protein skinhead-1): > 100 µM (inactive)

CN(CC(=O)NCc1ccccn1)S(=O)(=O)c1ccc(Br)cc1
EC50 [6]: > 300 µM (not active) | EC50 [7]: > 300 µM (not active)

CCOC(=O)c1c(NC(=O)C2CCCN(S(=O)(=O)c3ccccc3)C2)sc2c1CCCC2 (stereo unspecified)
EC50 [1]: 50.9 µM (active) | EC50 [2]: 73.3 µM (active)
